We go through three compounds from paper PMC3205048, “Differential Modulation of Beta-Adrenergic Receptor Signaling by Trace Amine-Associated Receptor 1 Agonists” (PLoS ONE, 2011).

Broadly, the EC50 is the concentration giving half of the maximal effect.

Read-outs that look alike come from different tables or passages of the source.

What all share (format): cell-based
One test addresses T1, hTAAR1 (Homo sapiens, UniProt Q96RJ0).
T1 construct: Full length human TAAR1 (hTAAR1, NM_138327.1) was subcloned; first 20 amino acids of bovine rhodopsin (N); expressed in transfected cells; host or cells: HEK293, transient transfection, vector pcDps
T1 sequence (Q96RJ0 1-339): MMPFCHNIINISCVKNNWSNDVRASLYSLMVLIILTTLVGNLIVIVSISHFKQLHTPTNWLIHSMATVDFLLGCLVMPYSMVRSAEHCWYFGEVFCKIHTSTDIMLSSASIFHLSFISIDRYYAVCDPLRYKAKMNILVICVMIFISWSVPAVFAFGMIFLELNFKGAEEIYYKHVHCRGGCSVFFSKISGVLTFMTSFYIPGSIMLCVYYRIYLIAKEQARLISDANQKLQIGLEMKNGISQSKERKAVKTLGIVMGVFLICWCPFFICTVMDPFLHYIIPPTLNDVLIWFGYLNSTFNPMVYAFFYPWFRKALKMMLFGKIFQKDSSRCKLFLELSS
Put plainly: cAMP accumulation (AlphaScreen) in HEK293 cells transiently transfected with hTAAR1. Here is the method:
Figure 2 Functional characterization of hTAAR1 interacting with different trace amines. HEK293 cells transiently transfected with hTAAR1 and were incubated for 45 minutes with […] of PEA, OA and TYR. Basal signaling activity as well as activation of the Gs protein/adenylyl cyclase pathway was determined by AlphaScreen technology. Data represent mean ± SEM of cAMP accumulation after stimulation from 4–5 independent experiments performed in triplicates. […]. Data were analyzed using a paired one-tailed t-test.
Full length human TAAR1 (hTAAR1, NM_138327.1) was subcloned into the eukaryotic expression vector pcDps, N-terminally tagged with an hemagglutinin (5′ […] 3′) epitope via KpnI and SpeI restriction sites. For better cell surface expression hTAAR1 was additionally N-terminally fused with the first 20 amino acids of the bovine Rhodopsin [18], [33]. The human β1-adrenergic receptor (hADRB1, NM_000684.2)-pcDps construct cloned via KpnI/SpeI containing N-terminal (HA)-tag and C-terminal Flag-tag (5′ […] 3′).
Human embryonic kidney cells (HEK293) were cultured in Minimum Essential Medium (MEM) Earle's (Biochrom AG) supplemented with 10% FBS (PAA Laboratories GmbH), 100 U/ml penicillin, and 100 µg/ml streptomycin (Biochrom AG) and 2 mM L-glutamine (Invitrogen) at 37°C with 5% CO2. 48 well plates were coated with Poly-L-Lysine (Biochrom) and HEK293 cells were seeded with 37,500 cells per well. Transient transfection in triplicates with 84 ng DNA/well using metafectene according to manufactures instructions (Biontex, Munich, Germany) was performed 28 hours later. 40 hours after transfection cells were pre-incubated for 5 minutes with stimulation buffer containing of MEM Earle's media and 1 mM 3-isobutyl-1-methylxanthine (IBMX, Sigma). This stimulation buffer was used for all further steps. […]. Ligands were all purchased from Sigma, Munich. Controls were incubated with tyramine, β-phenylethylamine, octopamine or isoprenaline for 45 minutes. All reactions were performed at 37°C with 5% CO2 saturated air and stopped by aspirating medium. Cells were lysed at 4°C for 2 h on a shaking platform with cell lysis buffer containing […] HEPES, 0.1% BSA, 0.3% Tween20 and 1 mM IBMX.
(§1) The competitive cyclic adenosine-monophosphate (cAMP) assay via Alphascreen (Perkin Elmer Life Science, Inc., Boston, MA) was carried out according to the manufacturers' protocol. Briefly, 5 µl of each sample were transferred to a 384 well plate. Acceptor beads were diluted in 1X HBSS with […] HEPES, 0.1% BSA, pH 7.4 and incubated for 30 minutes at room temperature. Then donor beads and 50 µM biotinylated cAMP diluted in the same way were added and incubated for an hour at room temperature. Measurement of the plate was performed using Berthold Microplate Reader (Berthold Technologies GmbH & Co. KG). Results are expressed in fold over mock (unstimulated empty vector). Dose response curves and bar graphs with mean ± SEM as well as statistical analysis (paired one-tailed t-test) were generated using GraphPad Prism Version 4.03.
Supplementary file pone.0027073.s001.tif: Figure S1 Dose response curves of hTAAR1 agonists. […]. HEK293 transiently expressing hTAAR1 were stimulated with each trace amine in concentrations ranging 0.1 mM to 10 nM. Shown are dose response curves fold over basal means ± SEM from n≥4 independent experiments of measured cAMP in triplicates as described in Material and Methods. […]. Data were analyzed using paired one-tailed t-test tested against basal value of hTAAR1. (TIF) Click here for additional data file.
(In general: Cyclic AMP is a second messenger, typically raised through Gs and lowered through Gi signalling.)

The next test has as its target T2, hADRB2 (Homo sapiens, UniProt P07550).
T2 construct: HA tag (N); expressed in transfected cells; host or cells: HEK293 (ATCC-LGC), transient transfection, vector pcDps
Put plainly: cAMP accumulation (AlphaScreen) in HEK293 cells transiently transfected with hADRB2, ligand alone or co-stimulation with ISOP. The conditions noted are these: for agonistic effect of the ligand alone: ligand alone 6.7 nM to 6700 nM, 45 min; for effect on ISOP stimulation: pre-incubation 6.7 nM to 6700 nM 15 min, then ISOP 1 nM to 10000 nM 30 min. Here is the method: (§2) We functionally tested the effects of particular trace amines at the human ADRB1 and ADRB2 (figure 3). […] Controls were stimulated with each trace amine and ISOP alone, respectively.
(§3) Figure 3 Characterization of hADRB1 and hADRB2 after trace amine challenge. HEK293 cells were transiently transfected with hADRB1 and hADRB2, respectively. […] As controls hADRB1 and hADRB2 were incubated with each substance alone with the same concentration for 45 minutes. Three to four independent experiments measured in duplex or tripletts mean ± SEM are depicted here. […] Maximal values were statistically analyzed using paired one-tail t-test compared to ISOP maximal stimulation. A-B) hADRB1 and hADRB2 were stimulated with ISOP and TYR alone and with both substances simultaneously.
Human β2-adrenergic receptor (ADRB2, NM_000024.5) was subcloned via EcoRI and SpeI with an N-terminal (HA)-tag as well.
Human embryonic kidney cells (HEK293) were cultured in Minimum Essential Medium (MEM) Earle's (Biochrom AG) supplemented with 10% FBS (PAA Laboratories GmbH), 100 U/ml penicillin, and 100 µg/ml streptomycin (Biochrom AG) and 2 mM L-glutamine (Invitrogen) at 37°C with 5% CO2. 48 well plates were coated with Poly-L-Lysine (Biochrom) and HEK293 cells were seeded with 37,500 cells per well. Transient transfection in triplicates with 84 ng DNA/well using metafectene according to manufactures instructions (Biontex, Munich, Germany) was performed 28 hours later. 40 hours after transfection cells were pre-incubated for 5 minutes with stimulation buffer containing of MEM Earle's media and 1 mM 3-isobutyl-1-methylxanthine (IBMX, Sigma). This stimulation buffer was used for all further steps. […] Ligands were all purchased from Sigma, Munich. Controls were incubated with tyramine, β-phenylethylamine, octopamine or isoprenaline for 45 minutes. All reactions were performed at 37°C with 5% CO2 saturated air and stopped by aspirating medium. Cells were lysed at 4°C for 2 h on a shaking platform with cell lysis buffer containing […] HEPES, 0.1% BSA, 0.3% Tween20 and 1 mM IBMX.
as §1, with “vector).” for “vector). Dose response curves and bar graphs with mean ± SEM as well as statistical analysis (paired one-tailed t-test) were generated using GraphPad Prism Version 4.03.”

A further test addresses T3, hADRB1 (Homo sapiens, UniProt P08588).
T3 construct: HA tag (N); expressed in transfected cells; host or cells: HEK293 (ATCC-LGC), transient transfection, vector pcDps
As for the experimental part: as §2, §3
Human embryonic kidney cells (HEK293) were cultured in Minimum Essential Medium (MEM) Earle's (Biochrom AG) supplemented with 10% FBS (PAA Laboratories GmbH), 100 U/ml penicillin, and 100 µg/ml streptomycin (Biochrom AG) and 2 mM L-glutamine (Invitrogen) at 37°C with 5% CO2. […]
The competitive cyclic adenosine-monophosphate (cAMP) assay via Alphascreen (Perkin Elmer Life Science, Inc., Boston, MA) was carried out according to the manufacturers' protocol. […] Measurement of the plate was performed using Berthold Microplate Reader (Berthold Technologies GmbH & Co. KG). […]

Where [1] appears, read: ligand alone, 45 min, HEK293, cAMP, mean ± SEM.
[2] abbreviates: ligand alone, HEK293, cAMP accumulation, mean ± SEM, n≥3, read-out: EC50.

T2 sequence (P07550 whole entry): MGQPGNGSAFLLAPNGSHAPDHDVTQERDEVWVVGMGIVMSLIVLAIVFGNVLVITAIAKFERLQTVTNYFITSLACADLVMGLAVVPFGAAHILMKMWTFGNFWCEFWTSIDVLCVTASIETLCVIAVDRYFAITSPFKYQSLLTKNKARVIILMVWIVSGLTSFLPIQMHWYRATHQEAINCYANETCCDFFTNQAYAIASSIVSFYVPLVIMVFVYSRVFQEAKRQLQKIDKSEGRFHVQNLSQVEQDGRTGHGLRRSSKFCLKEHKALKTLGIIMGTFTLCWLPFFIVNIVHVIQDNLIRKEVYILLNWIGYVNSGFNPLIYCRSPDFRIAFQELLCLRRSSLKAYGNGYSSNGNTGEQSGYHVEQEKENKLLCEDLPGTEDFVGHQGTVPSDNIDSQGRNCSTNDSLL
T3 sequence (P08588 whole entry): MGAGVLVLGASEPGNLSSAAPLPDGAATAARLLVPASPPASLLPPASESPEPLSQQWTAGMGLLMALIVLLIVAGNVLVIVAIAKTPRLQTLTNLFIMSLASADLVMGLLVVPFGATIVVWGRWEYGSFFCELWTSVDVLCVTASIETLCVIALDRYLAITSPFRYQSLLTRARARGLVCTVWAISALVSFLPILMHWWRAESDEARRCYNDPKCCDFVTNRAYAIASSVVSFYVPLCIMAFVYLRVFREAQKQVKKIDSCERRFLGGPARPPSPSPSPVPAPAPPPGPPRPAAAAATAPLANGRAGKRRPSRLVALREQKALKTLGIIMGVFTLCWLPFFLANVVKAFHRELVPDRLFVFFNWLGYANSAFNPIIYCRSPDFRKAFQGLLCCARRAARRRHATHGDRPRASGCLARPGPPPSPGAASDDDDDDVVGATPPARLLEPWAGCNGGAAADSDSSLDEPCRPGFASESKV

`NCC(O)c1ccc(O)cc1` (centres unmarked) [OA, octopamine]: the “activation of hTAAR1 (adenylyl cyclase stimulation, cAMP formation)” value (shortened to “activation of hTAAR1”) at hTAAR1 (HEK293, 45 min) is given as “activate hTAAR1”. Besides, the Emax on hTAAR1 (setting [1]) worked out at 172 ± 42 nM. For the same compound, on hTAAR1 (setting [2]), the EC50 is 4.17 ± 1.47 µM. Also, on hADRB2, the “agonistic effect of the ligand alone” value is given as “no agonistic effect” and the “effect on ISOP stimulation” value was “orthosteric antagonist”.

For the compound `NCCc1ccccc1` [PEA, β-phenylethylamine], on hTAAR1 (HEK293, 45 min), the “activation of hTAAR1” value was “activate hTAAR1”. This compound also registered an Emax on hTAAR1 (setting [1]) of 403 ± 54 nM. Also, at hTAAR1 (setting [2]), the EC50 is 0.26 ± 0.016 µM. The “effect on ISOP stimulation” value at hADRB1 and at hADRB2 was “non-competitively antagonized” each time. The “agonistic effect of the ligand alone” value on hADRB1 (ligand alone 6.7 nM to 6700 nM, 45 min) was “no agonistic effects”; at hADRB2 it was “no agonistic effects”.

`NCCc1ccc(O)cc1` [TYR, tyramine]: at hTAAR1, the concentration giving a half-maximal response (EC50) worked out at 1.54 ± 0.251 µM; the Emax was determined as 219 ± 67 nM; the “activation of hTAAR1” value was “activate hTAAR1”. Moreover, on hADRB2, the “agonistic effect of the ligand alone” value is recorded as “no agonistic effect” and the “effect on ISOP stimulation” value is “allosteric antagonist”.
